We go through twelve compounds from PubChem BioAssay (NCI).

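Results reflect a 48-hour exposure of cells in 96-well plates to compound at five concentrations. GI50 = concentration required for 50% inhibition of growth. TGI: concentration producing complete growth inhibition.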

Experiment in all cases: NCI tumour cell line growth inhibition, 48 h
Assay [1] has as its system COLO 205 colon.
Assay [2] relates to HOP-92 NSCLC.
Assay [3] has as its system IGROV1 ovarian.
Assay [4] relates to NCI-H522 lung.
Assay [5] deals with OVCAR-8 ovarian.
Assay [6] relates to SK-MEL-5 melanoma.
Assay [7] deals with SNB-75 CNS.
Assay [8] relates to SR leukemia.
For assay [9], the system named is RPMI-8226 leukemia.
In assay [10] the test system is MCF7 breast.

With `COc1cc2c(cc1OC)[C@@H](C(O)c1ccccc1)NCC2` (some centres undefined), the TGI in assay [1], in assay [2], in assay [3], in assay [4], in assay [5] and in [6] was above 100 µM throughout. For the same compound, the TGI in assay [7] and in assay [8] was above 100 µM each time.
Consider `CC[O-].CC[O-].O=Nc1ccc2cc([O-])ccc2c1.O=Nc1ccc2cc([O-])ccc2c1.[Ti+4]`, for which the GI50 in assay [1] was 2.2 µM; in [2] it was 1.96 µM; in assay [5], 1.47 µM; in [9], 1.51 µM; in assay [8] it was 0.0107 µM. The TGI in assay [1] was 6.54 µM; in [2], 6.1 µM; in assay [5] it was 3.28 µM; in assay [9] it was 4.6 µM; in [8] it was 2.95 µM.
With `COc1ccc(/C=C2\CNC/C(=C\c3ccc(OC)cc3)C2=O)cc1`, the TGI was above 100 µM in assay [1]; above 100 µM in assay [2]; above 100 µM in assay [3]; 35.2 µM in assay [5]; above 100 µM in assay [9]; above 100 µM in assay [6]. The TGI in assay [7] and in assay [8] was above 100 µM throughout.
As to `Clc1cc(Cl)cc(N2N=C(c3cccc(Nc4ccncc4)c3)CC2c2ccc(Br)cc2)c1` (centres undefined), the GI50 is 1.82 µM in assay [1]; 1.48 µM in assay [2]; 1.74 µM in assay [3]; 1.88 µM in assay [4]; 2.16 µM in assay [5]; 1.81 µM in [6]. The GI50 in assay [7] was 1.42 µM; in [8], 1.48 µM. In addition, the TGI in [1] turned out to be 3.86 µM; in [2], 2.94 µM; in assay [3] it was 3.3 µM; in assay [4] it was 3.88 µM; in assay [5], 4.87 µM; in assay [6] it was 3.26 µM. Moreover, the TGI in assay [7] came out at 2.98 µM; in assay [8], 3.68 µM.
For `COc1cc(-c2cc(-c3nc4ccccc4[nH]3)[nH]n2)cc(OC)c1OC`, the GI50 in [1] is 3.98 µM; in assay [3] it was 2.34 µM; in [10], 2.79 µM; in [4], 1.87 µM; in [5], 2.35 µM; in assay [9], 1.2 µM. For the same compound, the GI50 in assay [6] was 1.34 µM; in [7] it was 2.83 µM; in assay [8], 3.32 µM. For the same compound, the TGI in assay [1] was determined as 15.6 µM; in [3], 15.4 µM; in assay [10], 10.3 µM; in assay [4], 8.81 µM; in [5] it was 7.74 µM; in assay [9], 4.16 µM. Moreover, the TGI in assay [6] was 3.94 µM; in assay [7] it was 12.8 µM; in [8] it was above 100 µM.
Take `CCN(CC)C(=S)N/N=C(\C)c1ccccc1O`: the TGI was above 100 µM in [1]; above 100 µM in assay [3]; 33 µM in assay [4]; above 100 µM in assay [5]; above 100 µM in assay [9]; 51.9 µM in [6]. The TGI in assay [7] and in assay [8] was above 100 µM each time.
In the case of `COc1ccc2nc(NC(=O)C(=O)CC(=O)c3ccc(Cl)cc3)sc2c1`, the TGI in assay [1], in assay [2], in assay [3], in assay [4], in assay [5] and in [6] was above 100 µM each time. The values for the TGI in [7] and in [8] were 99.1 µM and above 100 µM, respectively.
For `O=C(O)c1ccc(NS(=O)(=O)c2cccc3cccnc23)cc1`, the GI50 in assay [1], in assay [3], in [10], in [4], in [5] and in assay [9] was above 100 µM in each case. The GI50 in assay [6], in [7] and in assay [8] was above 100 µM throughout. Moreover, the TGI in [1], in assay [3], in assay [10], in assay [4], in assay [5] and in assay [9] was above 100 µM each time. Also, the TGI in assay [6], in [7] and in [8] was above 100 µM each time.
As to `Cc1c(C(=O)CC(=O)C(=O)Nc2cccc(C(F)(F)F)c2)[n+](=O)c2ccccc2n1[O-]`, the TGI in assay [1] was 13.4 µM; in assay [2], 38.9 µM; in [3] it was 9.34 µM; in assay [4], 5.5 µM; in [5], 6.34 µM; in [9] it was 11.7 µM. Also, the TGI in assay [6] came out at 14 µM; in assay [7] it was 7.86 µM; in assay [8] it was 8.82 µM.
With `Cc1cccc(C)c1NC(=O)C(=O)CC(=O)CO`, the TGI in [1], in assay [2], in assay [3], in assay [4], in assay [5] and in [9] was above 100 µM in each case. Further, the TGI in assay [6], in [7] and in [8] was above 100 µM throughout.
In the case of `O=C(O)c1ccc([N+](=O)[O-])c2c(=O)c3ccccc3[nH]c12`, the TGI in assay [1], in assay [2], in [3], in assay [4], in assay [5] and in assay [9] was above 100 µM throughout. Moreover, the TGI in assay [6], in [7] and in assay [8] was above 100 µM in each case.
On to `Cc1ccc(C2=Nc3ccccc3NC(=O)C2)cc1`, for which the TGI in assay [1], in assay [2], in assay [3], in assay [4], in assay [5] and in assay [6] was above 100 µM in each case. The TGI in [7] and in [8] was above 100 µM in each case.
